Like-named read-outs stand apart in the source and are kept apart here.
Assay: Toxicokinetics of LUM001 free form, 13-week oral capsule toxicity study in dogs
Assay type: in vivo, Beagle dogs
Design: AUC/Dose / Cmax/Dose: unit not given here
Conditions: for Cmax / Tmax / AUC(0-t): Beagle, dog, plasma, oral; for AUC(0-t): read-out: AUC(0-24 h), mean
Method: Six- to seven-month old Beagle dogs of body weights of 4.9-9.5 kg (4/sex/group) orally via capsules at 0, 5, 20 or 100 mg/kg for 13 consecutive weeks. Plasma levels of LUM001 (free form) were evaluated on Days 1 and 91. LUM001 was administered by once daily oral gelatin capsules. […] therefore, 105% of a stated dose is given to provide the appropriate amount of compound for dosing. On study Day 1 and Day 91, approximately 2 mL of venous blood was collected in heparinized tubes from the cephalic vein of each animal at 1, 2, 3, 5, 8, and 24 hours post-dose. Blood collection tubes were mixed and placed on ice during the collection period after which they were centrifuged and the plasma was harvested into cryotubes within approximately 60 minutes of blood collection. Plasma samples were stored at approximately −70° C. or lower until analyzed.
The concentration of LUM001 free form in plasma were determined using an LCMSMS method. The assay sensitivity was 5.00 ng/mL for a […] sample.

[1] = both sexes, 5 mg/kg, Day 1, 5 mg/kg, Comb
[2] = both sexes, 5 mg/kg, Day 91, 5 mg/kg, Comb
[3] = both sexes, 20 mg/kg, Day 1, 20 mg/kg, Comb
[4] = both sexes, 20 mg/kg, Day 91, 20 mg/kg, Comb
[5] = both sexes, 100 mg/kg, Day 1, 100 mg/kg, Comb
[6] = both sexes, 100 mg/kg, Day 91, 100 mg/kg, Comb
[7] = female, 5 mg/kg, Day 1, 5 mg/kg, F
[8] = female, 20 mg/kg, Day 1, 20 mg/kg, F
[9] = female, 20 mg/kg, Day 91, 20 mg/kg, F
[10] = female, 100 mg/kg, Day 1, 100 mg/kg, F
[11] = female, 100 mg/kg, Day 91, 100 mg/kg, F
[12] = male, 5 mg/kg, Day 1, 5 mg/kg, M
[13] = male, 5 mg/kg, Day 91, 5 mg/kg, M
[14] = male, 20 mg/kg, Day 1, 20 mg/kg, M
[15] = male, 20 mg/kg, Day 91, 20 mg/kg, M
[16] = male, 100 mg/kg, Day 1, 100 mg/kg, M
[17] = male, 100 mg/kg, Day 91, 100 mg/kg, M

With `CCCCC1(CCCC)CS(=O)(=O)c2ccc(N(C)C)cc2[C@@H](c2ccc(OCc3ccc(C[N+]45CCN(CC4)CC5)cc3)cc2)[C@H]1O` [LUM001] the AUC/Dose (Day 1, 5 mg/kg, Comb) was 3.55, the BA (Day 1, 5 mg/kg, Comb) was 0.1% and the Cmax/Dose (Day 1, 5 mg/kg, Comb) was 1.81. It also gave an AUC/Dose (Day 1, 5 mg/kg, F) of 4.17, a BA (Day 1, 5 mg/kg, F) of less than 0.1% and a Cmax/Dose (Day 1, 5 mg/kg, F) of 1.87. It also gave an AUC/Dose (Day 1, 5 mg/kg, M) of 2.92, a BA (Day 1, 5 mg/kg, M) of less than 0.1% and a Cmax/Dose (Day 1, 5 mg/kg, M) of 1.76. It also gave an AUC/Dose (Day 1, 20 mg/kg, Comb) of 3.63, a BA (Day 1, 20 mg/kg, Comb) of 0.1% and a Cmax/Dose (Day 1, 20 mg/kg, Comb) of 1.25. The AUC/Dose (Day 1, 20 mg/kg, F) was 2.43, the BA (Day 1, 20 mg/kg, F) was less than 0.1% and the Cmax/Dose (Day 1, 20 mg/kg, F) was 1.27. For the same molecule, the AUC/Dose (Day 1, 20 mg/kg, M) was 4.84, the BA (Day 1, 20 mg/kg, M) was less than 0.1% and the Cmax/Dose (Day 1, 20 mg/kg, M) was 1.24. It also gave an AUC/Dose (Day 1, 100 mg/kg, Comb) of 2.39, a BA (Day 1, 100 mg/kg, Comb) of less than 0.1% and a Cmax/Dose (Day 1, 100 mg/kg, Comb) of 0.907. It also gave an AUC/Dose (Day 1, 100 mg/kg, F) of 3.44, a BA (Day 1, 100 mg/kg, F) of less than 0.1% and a Cmax/Dose (Day 1, 100 mg/kg, F) of 1.17. For the same molecule, the AUC/Dose (Day 1, 100 mg/kg, M) was 1.34, the BA (Day 1, 100 mg/kg, M) was less than 0.1% and the Cmax/Dose (Day 1, 100 mg/kg, M) was 0.648. The AUC/Dose (Day 91, 5 mg/kg, Comb) was 0.350, the BA (Day 91, 5 mg/kg, Comb) was less than 0.1% and the Cmax/Dose (Day 91, 5 mg/kg, Comb) was 0.350. It also gave an AUC/Dose (Day 91, 5 mg/kg, F) of 0.00, a BA (Day 91, 5 mg/kg, F) of less than 0.1% and a Cmax/Dose (Day 91, 5 mg/kg, F) of 0.00. It also gave an AUC/Dose (Day 91, 5 mg/kg, M) of 0.700, a BA (Day 91, 5 mg/kg, M) of less than 0.1% and a Cmax/Dose (Day 91, 5 mg/kg, M) of 0.700. For the same molecule, the AUC/Dose (Day 91, 20 mg/kg, Comb) was 2.54, the BA (Day 91, 20 mg/kg, Comb) was 0.1% and the Cmax/Dose (Day 91, 20 mg/kg, Comb) was 1.19. It also gave an AUC/Dose (Day 91, 20 mg/kg, F) of 2.70, a BA (Day 91, 20 mg/kg, F) of less than 0.1% and a Cmax/Dose (Day 91, 20 mg/kg, F) of 1.25. It also gave an AUC/Dose (Day 91, 20 mg/kg, M) of 2.38, a BA (Day 91, 20 mg/kg, M) of less than 0.1% and a Cmax/Dose (Day 91, 20 mg/kg, M) of 1.13. The AUC/Dose (Day 91, 100 mg/kg, Comb) was 5.03, the BA (Day 91, 100 mg/kg, Comb) was 0.2% and the Cmax/Dose (Day 91, 100 mg/kg, Comb) was 1.40. For the same molecule, the AUC/Dose (Day 91, 100 mg/kg, F) was 6.01, the BA (Day 91, 100 mg/kg, F) was less than 0.1% and the Cmax/Dose (Day 91, 100 mg/kg, F) was 1.82. For the same molecule, the AUC/Dose (Day 91, 100 mg/kg, M) was 4.05, the BA (Day 91, 100 mg/kg, M) was less than 0.1% and the Cmax/Dose (Day 91, 100 mg/kg, M) was 0.974. For the same molecule, the Cmax [1] was 9.07 ng/mL, the Tmax [1] was 1.5 h and the AUC(0-t) [1] was 17.7 ng·h/mL. It also gave a Cmax [2] of 1.75 ng/mL, a Tmax [2] of 0.375 h and an AUC(0-t) [2] of 1.75 ng·h/mL. The Cmax [3] was 25.1 ng/mL, the Tmax [3] was 2.13 h and the AUC(0-t) [3] was 72.6 ng·h/mL. The Cmax [4] was 23.8 ng/mL, the Tmax [4] was 1.88 h and the AUC(0-t) [4] was 50.8 ng·h/mL. For the same molecule, the Cmax [5] was 90.7 ng/mL, the Tmax [5] was 1.38 h and the AUC(0-t) [5] was 239 ng·h/mL. For the same molecule, the Cmax [6] was 140 ng/mL, the Tmax [6] was 2 h and the AUC(0-t) [6] was 503 ng·h/mL. For the same molecule, the Cmax [7] was 9.34 ng/mL, the Tmax [7] was 1.25 h and the AUC(0-t) [7] was 20.9 ng·h/mL. It also gave a Tmax (female, 5 mg/kg, Day 91, 5 mg/kg, F) of 0 h, a Cmax [8] of 25.3 ng/mL and a Tmax [8] of 2 h. For the same molecule, the AUC(0-t) [8] was 48.5 ng·h/mL, the Cmax [9] was 25 ng/mL and the Tmax [9] was 2 h. The AUC(0-t) [9] was 53.9 ng·h/mL, the Cmax [10] was 117 ng/mL and the Tmax [10] was 1.5 h. For the same molecule, the AUC(0-t) [10] was 344 ng·h/mL, the Cmax [11] was 182 ng/mL and the Tmax [11] was 1.75 h. It also gave an AUC(0-t) [11] of 601 ng·h/mL, a Cmax [12] of 8.79 ng/mL and a Tmax [12] of 1.75 h. It also gave an AUC(0-t) [12] of 14.6 ng·h/mL, a Cmax [13] of 3.5 ng/mL and a Tmax [13] of 0.75 h. It also gave an AUC(0-t) [13] of 3.5 ng·h/mL, a Cmax [14] of 24.8 ng/mL and a Tmax [14] of 2.25 h. It also gave an AUC(0-t) [14] of 96.7 ng·h/mL, a Cmax [15] of 22.6 ng/mL and a Tmax [15] of 1.75 h. The AUC(0-t) [15] was 47.6 ng·h/mL, the Cmax [16] was 64.8 ng/mL and the Tmax [16] was 1.25 h. The AUC(0-t) [16] was 134 ng·h/mL, the Cmax [17] was 97.4 ng/mL and the Tmax [17] was 2.25 h. For the same molecule, the AUC(0-t) [17] was 405 ng·h/mL.
